Assay results as given in US20030215462A1, “Use of UGT inhibitors to increase bioavailability” (priority 2001, published 2003).

How the values were obtained:
Type in all cases: biochemical
[1] = test system: UGT enzymes of human liver microsomes; experiment: Inhibition of raloxifene glucuronidation (G1, G2) in human liver microsomes; details: for % of control metabolism (SD, n = 3), raloxifene glucuronide G1 / % of control metabolism (SD, n = 3), raloxifene glucuronide G2: human liver microsomes 250 μg/ml, 15 min
Source text: (§1) Compounds were eluted using a binary solvent gradient system. […] Solvent B was methanol. […] Detection was at 280 nm.

[2] = test system: UGT enzymes of pooled human jejunum microsomes; experiment: Inhibition of raloxifene glucuronidation (G1, G2) in pooled human jejunum microsomes; details: jejunum HJ61; inhibitor 50 μM
Procedure: as §1
Standardized incubations utilized […] microsomal protein, 1 mM UDPGA and a 30 min incubation time.

[3] = test system: T1, UGT enzymes of human liver microsomes; experiment: Inhibition of estradiol (E2) glucuronidation in human liver microsomes; details: liver 032101; E2 50 μM; inhibitor 50 μM
T1 construct: residual metabolism (% of control), E2-3-β-D-glucuronide; other: liver 032101; residual metabolism (% of control), E2-3-β-D-glucuronide
Source text: (§2) Compounds were eluted using a binary solvent gradient system where solvent A was dilute phosphoric acid (pH 3) and solvent B was 80:20 acetonitrile-methanol. […] Detection was at 280 nm.

[4] = test system: T2, UGT enzymes of human liver microsomes; experiment: as above; details: liver 032101; E2 50 μM; inhibitor 50 μM
T2 construct: residual metabolism (% of control), E2-17-β-D-glucuronide; other: liver 032101; residual metabolism (% of control), E2-17-β-D-glucuronide
Source text: as §2

[5] = test system: UGT enzymes of human liver microsomes; experiment: as above; details: liver 062101; E2 50 μM; inhibitor 50 μM
Source text: as §2

[6] = test system: T3, UGT enzymes of human liver microsomes; experiment: Inhibition of 7-HFC glucuronidation in human liver microsomes; details: for % of control metabolism (SD, n = 3), 7-HFC glucuronidation: 7-HFC 50 μM, human liver microsomes 100 μg/ml, 15 min
T3 construct: percentage of control metabolism, 7-HFC glucuronidation; percentage of control metabolism, 7-HFC glucuronidation

[7] = test system: UGT enzymes of pooled human jejunum microsomes; experiment: Inhibition of 2ME2 glucuronidation (MG1) in pooled human jejunum microsomes; details: jejunum HJ61, 2ME2 50 μM
Source text: as §2

[8] = test system: UGT enzymes of pooled human jejunum microsomes; experiment: Inhibition of estradiol (E2) glucuronidation in pooled human jejunum microsomes; details: jejunum HJ61; E2 50 μM; inhibitor 50 μM
Source text: as §2

[9] = inhibitor 10 μM, raloxifene 50 μM
[10] = inhibitor 25 μM, raloxifene 50 μM
[11] = inhibitor 50 μM, raloxifene 50 μM
[12] = inhibitor 100 μM, raloxifene 50 μM
[13] = inhibitor 500 μM, raloxifene 50 μM
[14] = liver lot 032101, inhibitor 50 μM
[15] = liver lot 062101, inhibitor 50 μM
[16] = liver lot 083000, inhibitor 50 μM
[17] = raloxifene 50 μM, inhibitor 10 μM
[18] = raloxifene 50 μM, inhibitor 25 μM
[19] = raloxifene 50 μM, inhibitor 50 μM
[20] = raloxifene 50 μM, inhibitor 100 μM

O=C(O[C@@H]1Cc2c(O)cc(O)cc2O[C@@H]1c1ccc(O)c(O)c1)c1cc(O)c(O)c(O)c1 [Epicatechin gallate]
% of control metabolism (SD, n = 3), raloxifene glucuronide G1 [1, 9]: 77 (4) %
% of control metabolism (SD, n = 3), raloxifene glucuronide G1 [1, 10]: 48 (4) %
% of control metabolism (SD, n = 3), raloxifene glucuronide G1 [1, 11]: 37 (3) %
% of control metabolism (SD, n = 3), raloxifene glucuronide G1 [1, 12]: 20 (0) %
% of control metabolism (SD, n = 3), raloxifene glucuronide G1 [1, 13]: 0 (0) %
% of control metabolism (SD, n = 3), raloxifene glucuronide G2 [1, 9]: 73 (4) %
% of control metabolism (SD, n = 3), raloxifene glucuronide G2 [1, 10]: 55 (5) %
% of control metabolism (SD, n = 3), raloxifene glucuronide G2 [1, 11]: 43 (4) %
% of control metabolism (SD, n = 3), raloxifene glucuronide G2 [1, 12]: 24 (2) %
% of control metabolism (SD, n = 3), raloxifene glucuronide G2 [1, 13]: 0 (0) %
% of control metabolism, raloxifene G1 [1, 14]: 47 (4) %
% of control metabolism, raloxifene G2 [1, 14]: 45 (2) %
% of control metabolism, raloxifene G1 [1, 15]: 63 (4) %
% of control metabolism, raloxifene G2 [1, 15]: 37 (2) %
% of control metabolism, raloxifene G1 [1, 16]: 37 (3) %
% of control metabolism, raloxifene G2 [1, 16]: 43 (4) %
% of control metabolism, raloxifene G1 [1, 17]: 77 (4) %
% of control metabolism, raloxifene G2 [1, 17]: 73 (4) %
% of control metabolism, raloxifene G1 [1, 18]: 48 (4) %
% of control metabolism, raloxifene G2 [1, 18]: 55 (5) %
% of control metabolism, raloxifene G1 [1, 19]: 37 (3) %
% of control metabolism, raloxifene G2 [1, 19]: 43 (4) %
% of control metabolism, raloxifene G1 [1, 20]: 20 (0) %
% of control metabolism, raloxifene G2 [1, 20]: 24 (2) %
% of control metabolism, raloxifene G1 [2]: 34 (3) %
% of control metabolism, raloxifene G2 [2]: 40 (3) %
residual metabolism (% of control), E2-3-β-D-glucuronide [3]: 27 (1) %
residual metabolism (% of control), E2-17-β-D-glucuronide [4]: 83 (0) %
residual metabolism (% of control), E2-3-β-D-glucuronide [5]: 34 (1) %
residual metabolism (% of control), E2-17-β-D-glucuronide [5]: 67 (1) %
percentage of control metabolism, 7-HFC glucuronidation ([6]; inhibitor 100 μM): 67 (1) %
% of control metabolism (SD, n = 3), 7-HFC glucuronidation ([6]; inhibitor 100 μM): 67 (1) %
percentage of control metabolism, 7-HFC glucuronidation ([6]; inhibitor 200 μM): 55 (3) %
% of control metabolism (SD, n = 3), 7-HFC glucuronidation ([6]; inhibitor 200 μM): 55 (3) %
percentage of control metabolism, 7-HFC glucuronidation ([6]; inhibitor 500 μM): 10 (1) %
% of control metabolism (SD, n = 3), 7-HFC glucuronidation ([6]; inhibitor 500 μM): 10 (1) %
residual metabolism (% of control), 2ME2 MG1 ([7]; inhibitor 25 μM): 76 (4) %
residual metabolism (% of control), 2ME2 MG1 ([7]; inhibitor 50 μM): 63 (1) %
residual metabolism (% of control), 2ME2 MG1 ([7]; inhibitor 100 μM): 47 (2) %
residual metabolism (% of control), E2-3-β-D-glucuronide [8]: 26 (1) %
residual metabolism (% of control), E2-17-β-D-glucuronide [8]: 61 (4) %
